Measurements as given in US5929035A, “Methods of treating intestinal disorders” (Regents of the University of Michigan, priority 1998, dated 1999).
Where “and” joins values, the source holds several entries; their conditions need not be identical. Identical values can stand only once.

How the values were obtained:
[1] = system: stomach; set-up: species or system rats; settings: rat, in vivo, iv
[2] = system: longitudinal muscle from rat proximal colon
[3] = system: mouse vas deferens; settings: cited from earlier work
[4] = system: longitudinal muscle strips of proximal colon from BAC- or vehicle-treated rats; assay: Benzalkonium chloride (BAC) myenteric plexus ablation, organ bath experiments; set-up: species or system rat
From the text: This example examined benzalkonium chloride (BAC)-treatment. […] EFS caused frequency-dependent and TTX-sensitive contractions in vehicle-treated tissues but not BAC-treated tissues. However, carbachol contracted both vehicle- and BAC-treated tissues with the same degree. These previous studies indicate that chronic ablation of the myenteric plexus by serosal application of BAC essentially eliminates neuronally mediated responses without a concomitant alteration in muscle contractility. To investigate if the action of OFQ is mediated via intramural myenteric plexus, BAC (0.1%) was applied to the serosal surface of the proximal colon every 5 min for 30 min and then rinsed off with saline. Saline-treated group served as controls. Two weeks after BAC- or saline-treatment, the longitudinal muscle strips were used for the organ bath experiments.
The area under the curve was calculated using Planix 7 (Sokkia Corporation,Overland Park, Kans.) and expressed as a motility index. The area under the curve of basal contraction was evaluated over 10 min in each experiment. The area under the curve of antagonist-induced contractions and OFQ-induced contractions was also evaluated over 10 min. The motility index was compared between basal contractions and OFQ-induced contractions in each experiment.

[5] = system: longitudinal and circular muscle of the rat proximal colon
[6] = system: proximal colon; set-up: species or system rats; settings: rat, in vivo, iv
[7] = system: longitudinal muscle strips from rat proximal colon
[8] = system: opioid receptor; settings: cited from earlier work
[9] = system: longitudinal muscle strips from rat gastric body
[10] = system: 3H-ACh release from longitudinal muscle strips of gastric body; set-up: species or system rat
[11] = system: colonic transit; set-up: species or system rats; settings: rat, in vivo, sc
[12] = system: 3H-ACh release from longitudinal muscle strips of ileum; set-up: species or system rat
[13] = system: longitudinal muscle strips from rat ileum
[14] = system: longitudinal and circular muscle layer from the stomach and small intestine; set-up: species or system rat
[15] = system: longitudinal and circular muscle from rat colon (proximal colon and distal colon)
[16] = system: 3H-ACh release from longitudinal muscle strips of proximal colon; set-up: species or system rat
[17] = system: gastrointestinal transit; set-up: species or system rats; settings: rat, in vivo, sc
[18] = system: guinea pig ileum; settings: cited from earlier work
[19] = system: longitudinal muscle from the rat proximal colon

Compound: CC(C)C[C@H](NC(=O)[C@H](CCCCN)NC(=O)[C@H](CCCN=C(N)N)NC(=O)[C@H](C)NC(=O)[C@H](CO)NC(=O)[C@H](CCCCN)NC(=O)[C@H](CCCN=C(N)N)NC(=O)[C@H](C)NC(=O)CNC(=O)[C@@H](NC(=O)[C@H](Cc1ccccc1)NC(=O)CNC(=O)CNC(=O)[C@@H](N)Cc1ccccc1)[C@@H](C)O)C(=O)N[C@@H](C)C(=O)N[C@@H](CC(N)=O)C(=O)N[C@@H](CCC(N)=O)C(=O)O [OFQ, Phe-Gly-Gly-Phe-Thr-Gly-Ala-Arg-Lys-Ser-Ala-Arg-Lys-Leu-Ala-Asn-Gln]
- muscular contractions in the stomach [1]: not in the stomach
- OFQ-induced contractions in Ca2+-free medium [2]: abolished
- effect on EFS-evoked muscular contraction [3]: potent inhibitory effects
- contraction of longitudinal muscle from vehicle-treated rats [4]: caused significant contractions
- contraction of longitudinal muscles from BAC-treated rats [4]: no contractile effects
- contractions at 10^-7 M compared with 10^-6 M [5]: not significantly different
- dose dependence of induced contractions [5]: in a dose-dependent manner
- maximal effect, increase of basal contraction [5]: 278%±24% and 215%±32%
- persistence of strong phasic contractions [5]: 10 to 15 min
- strips showing a potent initial phasic contraction followed by a phasic response [5]: 60.9%
- strips showing a smaller initial contraction followed by a gradually increasing phasic response [5]: 26.4%
- strips showing only a slight initial contraction followed by a pronounced phasic response [5]: 12.6%
- muscular contractions in the proximal colon [6]: significantly increased muscular contractions
- off-contraction in response to EFS of the proximal colon [7]: no inhibitory effects
- reduction of EFS-evoked muscular contraction [7]: not in the proximal colon
- activity at the opioid receptor [8]: does not show any activity
- EFS-evoked muscular contraction reduced to [9]: 85.2±5.6%
- EFS-evoked of-contraction in the stomach [9]: significantly reduced
- dose dependence of reduction of EFS-evoked muscular contraction [9]: in a dose dependent manner
- 3H-ACh release in response to EFS reduced to [10]: 88.1±4.3%
- basal release of 3H-ACh [10]: no effects
- colonic transit [11]: significantly accelerated
- 3H-ACh release in response to EFS reduced to [12]: 44.7±5.8%
- basal release of 3H-ACh [12]: no effects
- EFS-evoked muscular contraction reduced to [13]: 41.2±8.5%
- EFS-evoked on- and off-contraction in ileum [13]: significantly reduced
- dose dependence of reduction of EFS-evoked muscular contraction [13]: in a dose dependent manner
- contractions in longitudinal and circular muscle layer from stomach and small intestine [14]: failed to elicit significant contractions
- contractions in longitudinal muscle of proximal colon compared with distal colon (in words) [15]: much greater
- contractions in longitudinal muscle of proximal colon relative to distal colon [15]: 2-3 fold
- region of rat gastrointestinal tract in which contractions were induced [15]: induced contractions only in the colon
- threshold OFQ concentration inducing contractions [15]: 10^-9 M
- basal release of 3H-ACh [16]: no effects
- inhibitory effect on EFS-evoked 3H-ACh release [16]: not observed
- gastrointestinal transit [17]: without affecting
- effect on EFS-evoked muscular contraction [18]: potent inhibitory effects
- OFQ-induced contractions in the presence of TTX [19]: failed to elicit additional contractions
